Measurements taken from paper PMC5897044 (Cell host & microbe, 2017).
Bridge positions count the residues as written; N and C are the ends. Peptide text beside a SMILES is read from it.

Tested on: PMN infiltration in skin
Conditions: mouse, in vivo

C[C@@H](O)[C@H](NC(=O)[C@H](CO)NC(=O)[C@@H](N)Cc1ccc(O)cc1)C(=O)N[C@H]1CSC(=O)[C@H](Cc2ccccc2)NC(=O)[C@H](Cc2ccc(O)cc2)NC(=O)[C@H](Cc2ccc(O)cc2)NC(=O)[C@H](CO)NC1=O [S. caprae AIP] (H-YSTCSYYF; thioester 4-C)
magnitude of PMN infiltration by sterile injection, AIP vs vehicle: equivalent
